Laboratory results as given in paper PMC3820767, “Turning Defense into Offense: Defensin Mimetics as Novel Antibiotics Targeting Lipid II” (PLoS Pathogens, 2013).
Converted amounts (≈) assume the structure as drawn. Where two headings read alike, the source gives them in different places.

Assays:
[1] = tested on: Enterococcus faecalis (VRE) MMX848; assay: Broth microdilution susceptibility testing (CLSI); format: cell-based
Procedure: (§1) The antibacterial activity of defensin mimetics against Staphylococcus aureus ATCC 29213 and Escherichia coli 25922 was carried out in a 96-well turbidimetric assay essentially as described previously with the following modifications: bacteria were exposed for 30 min to compounds in 10 mM phosphate buffer containing 5% DMSO prior to addition of 2× Muller-Hinton medium. Bacterial growth was monitored for 12 hours and data were analyzed as described. Determination of MICs was performed by Micromyx, LLC (Kalamazoo, Michigan) according to CLSI standards.

[2] = tested on: Pseudomonas aeruginosa MMX103-ATCC 27853; assay: Broth microdilution susceptibility testing (CLSI); format: cell-based
Procedure: as §1

[3] = tested on: Enterococcus faecalis MMX101-ATCC 29212; assay: Broth microdilution susceptibility testing (CLSI); format: cell-based
Procedure: as §1

[4] = tested on: Staphylococcus aureus (MRSA) MMX757; assay: Broth microdilution susceptibility testing (CLSI); format: cell-based
Procedure: as §1

[5] = tested on: Escherichia coli MMX102-ATCC 25922; assay: Broth microdilution susceptibility testing (CLSI); format: cell-based
Procedure: as §1

[6] = tested on: Streptococcus pneumoniae MMX1195-ATCC 49619; assay: Broth microdilution susceptibility testing (CLSI); format: cell-based
Procedure: as §1

[7] = tested on: Staphylococcus aureus MMX100-ATCC 29213; assay: Broth microdilution susceptibility testing (CLSI); format: cell-based
Procedure: as §1

[8] = tested on: Escherichia coli ATCC 25922; assay: Antibacterial killing, 96-well turbidimetric (modified vCC) assay; format: cell-based; details: for active against E.coli (IC100%): Table S3, concentration at which 100% killing occurred, no bacterial regrowth, No = not active; for Bacterial Killing E. coli: concentration resulting in 100% killing after 30 min exposure, modified vCC assay
Procedure: as §1

[9] = tested on: Staphylococcus aureus ATCC 29213; assay: as above; format: cell-based; details: for active against S.aureus (IC100%): Table S3, concentration at which 100% killing occurred, no bacterial regrowth, No = not active; for Bacterial Killing S. aureus: concentration resulting in 100% killing after 30 min exposure, modified vCC assay
Procedure: as §1

[10] = Surface Plasmon Resonance binding to immobilized 3-Lipid II; details: SPR; for Binding on Lipid II?: Table S3, initial determination at 10 µM; for Kd: immobilized 3-Lipid II
Procedure: Surface Plasmon Resonance binding experiments were carried out on a BIAcore T100 system (BIAcore Inc., Piscataway, NY) at 25°C. The assay buffer was 10 mM HEPES, 150 mM NaCl, 0.05% surfactant P20, pH 7.4 (±3 mM EDTA) supplemented with 10% DMSO. […] For initial determination of binding, defensin mimetics were introduced into the flow-cells (30 µl/min) in the running buffer at 10 µM. Resonance signals were corrected for nonspecific binding by subtracting the background of the control flow-cell. After each analysis, the sensor chip surfaces were regenerated with 50 mM NaOH for 30 s at a flow rate 100 µl/min, and equilibrated with the buffer prior to next injection. For binding kinetics studies, binding isotherms were analyzed with manufacturer-supplied software for BIAcore T100.

[11] = tested on: Streptococcus pneumonia (PRSP) MMX884; assay: Broth microdilution susceptibility testing (CLSI); format: cell-based, Streptococcus pneumoniae
Procedure: as §1

[12] = tested on: Jurkat; assay: Cytotoxicity by MTT assay; format: cell-based, human
[13] = tested on: Caco-2; assay: Cytotoxicity by MTT assay; format: cell-based, human
[14] = Cytotoxicity by MTT assay; format: cell-based, human; details: human, Caco-2 cells; Table S3; No = not cytotoxic; read-out: cytotoxic for Caco II (C50% survival)
[15] = tested on: Staphylococcus aureus ATCC 29213; assay: Antagonization of defensin antibacterial activity by 3-Lipid II; format: cell-based; details: 50 µM defensin pre-incubated with 3-Lipid II at 1:1 molar ratio
Procedure: Antagonization of the antibacterial activity of defensins against Staphylococcus aureus ATCC 29213 was carried out in a 96-well turbidimetric assay essentially as described previously. Defensins (50 µM final concentration) were pre-incubated with 3-Lipid II at 1∶1, 1∶2.5 and 1∶5 defensin: Lipid II molar ratios for 30 min at RT. Following incubation, solutions were diluted two-fold in ten steps and bacteria were added. Defensin activity was neutralized by the addition of Mueller Hinton broth. Bacterial growth was monitored for 12 hours and data were analyzed as described.

Molecule | MIC Enterococcus faecalis (VRE) 848-NA [1] [µg/mL] | MIC Pseudomonas aeruginosa 103-27853 [2] [µg/mL] | MIC Enterococcus faecalis 101-29212 [3] [µg/mL] | MIC Staphylococcus aureus (MRSA) 757-NA [4] [µg/mL] | MIC Escherichia coli 102-25922 [5] [µg/mL] | MIC Streptococcus pneumoniae 1195-49619 [6] [µg/mL] | MIC Staphylococcus aureus 100-29213 [7] [µg/mL] | Binding on Lipid II? [10] | Kd [10] [µM] | MIC Streptococcus pneumonia (PRSP) 884-NA [11] [µg/mL] | active against E.coli (IC100%) [8] | Bacterial Killing E. coli [8] [µM] | active against S.aureus (IC100%) [9] | Bacterial Killing S. aureus [9] [µM] | IC50 [12] [µM] | IC50 [13] [µM] | other results
CN(C)c1ccc(/C=C/c2cc(C(C)(C)C)[o+]c(C(C)(C)C)c2)cc1 [Compound 1493-0289, 2,6-di-tert-butyl-4-[(E)-2-[4-(dimethylamino)phenyl]ethenyl]-1$l^4-pyran-1-ylium] | 4 | >8 | 2 | 2 | >8 | 16 | 1 | Yes | 4.26 | 16 | 125 µM | 125 | 3,9 µM | 3.9 | 41.7 | 6.8 | –
Oc1ccccc1Oc1c(F)c(F)c(-c2c(F)c(F)c(Oc3ccccc3O)c(F)c2F)c(F)c1F [Compound 1611-0203, 2-{2,3,5,6-tetrafluoro-4-[2,3,5,6-tetrafluoro-4-(2-hydroxyphenoxy)phenyl]phenoxy}phenol] | 1 (≈ 1.94 µM) | >4 | 1 (≈ 1.94 µM) | 2 (≈ 3.89 µM) | >4 | >16 | 2 (≈ 3.89 µM) | – | 59.6 | >16 | – | >500 | 3,9 µM | 3.9 | – | – | IC50 ([12]; concentration resulting in 50% cell survival, MTT, 4 h, read-out: Cytotoxicity (C50%) Jurkat): 63.4 µM; IC50 ([13]; concentration resulting in 50% cell survival, MTT, 24 h, read-out: Cytotoxicity (C50%) Caco-2): 4.2 µM
Oc1ccc2ccccc2c1C(c1ccc(Cl)cc1)c1c(O)ccc2ccccc12 [Compound 363003] | 1 (≈ 2.43 µM) | >32 | 1 (≈ 2.43 µM) | 1 (≈ 2.43 µM) | >32 | 8 (≈ 19.5 µM) | 1 (≈ 2.43 µM) | Yes | 39.5 | 16 (≈ 38.9 µM) | No | >500 | 3,9 µM | 3.9 | 12.7 | 3.5 | –
CC(=O)NC[C@H]1CN(c2ccc(N3CCOCC3)c(F)c2)C(=O)O1 [Linezolid, reference compound] | – | – | – | – | – | – | – | – | – | – | – | – | – | – | – | – | MIC ([1]; Enterococcus faecalis, VRE, read-out: MIC Enterococcus faecalis (VRE) 848-NA): 2 µg/mL (≈ 5.93 µM); MIC ([2]; Pseudomonas aeruginosa, ATCC27853, read-out: MIC Pseudomonas aeruginosa 103-27853): > 64 µg/mL; MIC ([3]; Enterococcus faecalis, ATCC29212, read-out: MIC Enterococcus faecalis 101-29212): 2 µg/mL (≈ 5.93 µM); MIC ([4]; Staphylococcus aureus, MRSA, read-out: MIC Staphylococcus aureus (MRSA) 757-NA): 4 µg/mL (≈ 11.9 µM); MIC ([5]; Escherichia coli, ATCC25922, read-out: MIC Escherichia coli 102-25922): > 64 µg/mL; MIC ([6]; Streptococcus pneumoniae, ATCC49619, read-out: MIC Streptococcus pneumoniae 1195-49619): 2 µg/mL (≈ 5.93 µM); MIC ([7]; Staphylococcus aureus, ATCC29213, read-out: MIC Staphylococcus aureus 100-29213): 4 µg/mL (≈ 11.9 µM); MIC ([11]; Streptococcus pneumoniae, PRSP, read-out: MIC Streptococcus pneumonia (PRSP) 884-NA): 2 µg/mL (≈ 5.93 µM)
HNP-1: chemically synthesized wild-type human alpha-defensin Human Neutrophil peptide-1 | – | – | – | – | – | – | – | – | – | – | – | – | – | – | – | – | antagonization of bactericidal activity by Lipid II [15]: partly antagonized by one order of magnitude

The next lines start with results.

MIC Enterococcus faecalis (VRE) 848-NA [1] [µg/mL] | MIC Pseudomonas aeruginosa 103-27853 [2] [µg/mL] | MIC Enterococcus faecalis 101-29212 [3] [µg/mL] | MIC Staphylococcus aureus (MRSA) 757-NA [4] [µg/mL] | MIC Escherichia coli 102-25922 [5] [µg/mL] | MIC Streptococcus pneumoniae 1195-49619 [6] [µg/mL] | MIC Staphylococcus aureus 100-29213 [7] [µg/mL] | Binding on Lipid II? [10] | Kd [10] [µM] | MIC Streptococcus pneumonia (PRSP) 884-NA [11] [µg/mL] | Molecule | active against E.coli (IC100%) [8] | Bacterial Killing E. coli [8] [µM] | active against S.aureus (IC100%) [9] | Bacterial Killing S. aureus [9] [µM] | IC50 [12] [µM] | IC50 [13] [µM] | other results
16 | >64 | 16 | 2 | 64 | >8 | 2 | No | – | >8 | CC[n+]1c(/C=C2C=C(/C=C/N(C)c3ccccc3)CC(C)(C)C/2)sc2ccccc21 [Compound 4090-1978, 2-{[(1E)-5,5-dimethyl-3-[(E)-2-[methyl(phenyl)amino]ethenyl]cyclohex-2-en-1-ylidene]methyl}-3-ethyl-1,3-benzothiazol-3-ium] | 62,5 µM | 62.5 | 15,625 µM | 15.6 | 87.3 | 16.7 | –
– | – | – | – | – | – | – | No | – | – | OCC1c2ccccc2-c2ccccc21 [Compound 4121-0081, 9H-fluoren-9-ylmethanol] | No | – | No | – | – | – | IC50 [14]: 202 µM
16 | >16 | 16 | 16 | >16 | >64 | 16 | Yes | 3.64 | >64 | CC[n+]1c(/C=C/C=C2C=C(/C=C/N(C)c3ccccc3)CC(C)(C)C/2)sc2ccccc21.[I-] [Compound 5107930, 2-[(1E)-3-[(1E)-5,5-dimethyl-3-[(E)-2-[methyl(phenyl)amino]ethenyl]cyclohex-2-en-1-ylidene]prop-1-en-1-yl]-3-ethyl-1,3-benzothiazol-3-ium iodide] | 125 µM | 125 | – | 23.4 | > 223 | 27.9 | –
